Results published in ChEMBL document CHEMBL5120868, “Tuaimenal A, a Meroterpene from the Irish Deep-Sea Soft Coral Duva florida, Displays Inhibition of the SARS-CoV-2 3CLpro Enzyme” (J Nat Prod, 2022).

How the values were obtained:
[1] = target: Replicase polyprotein 1ab (Severe acute respiratory syndrome coronavirus 2) (UniProt P0DTD1); experiment: Inhibition of recombinant SARS-CoV-2 3CLpro expressed in Escherichia coli BL21 at 20 uM using LGSAVLQ-rhodamine 110-dp as fluorogenic substrate preincubated for 15 mins followed by substrate addition by spectrophotometry analysis relative to control
[2] = target: Replicase polyprotein 1ab (Severe acute respiratory syndrome coronavirus 2, UniProt P0DTD1); experiment: Inhibition of recombinant SARS-CoV-2 3CLpro expressed in Escherichia coli BL21 using LGSAVLQ-rhodamine 110-dp as fluorogenic substrate preincubated for 15 mins followed by substrate addition by spectrophotometry analysis
[3] = target: Replicase polyprotein 1ab (Severe acute respiratory syndrome coronavirus 2) (UniProt P0DTD1); experiment: Inhibition of recombinant SARS-CoV-2 3CLpro expressed in Escherichia coli BL21 at […] using LGSAVLQ-rhodamine 110-dp as fluorogenic substrate preincubated for 15 mins followed by substrate addition by spectrophotometry analysis relative to control

CC(C)=CCC/C(C)=C/CC[C@]1(C)C=Cc2c(C=O)c(O)c(C)c(O)c2O1
inhibition [1]: 40%
IC50 [2]: 21 µM

NCCc1ccc(S(=O)(=O)F)cc1
inhibition [3]: 100%
